Read-outs that look alike come from different tables or passages of the source. Marks after values point to notes of the source that are not given here.
Key:
[1] = tested on: third instar T. ni larvae; assay: Leaf disk choice feeding deterrence bioassay; format: in vivo, Trichoplusia ni
Source text: Cabbage plants (Brassica oleraceae var. Stonehead) used in the bioassays were routinely grown in plastic pots with a mixture of sandy loam soil and peat moss (4:1) in a greenhouse at the University of British Columbia, Vancouver, BC, Canada. Leaves were collected from cabbage plants that were 5-6 weeks old.
T. ni larvae and moths were obtained from a long established colony (>50 generations) maintained on an artificial diet, Velvetbean Caterpillar Diet No. F9796 [Bio-Sery Inc. (Frenchtown, NIL)] in the insectary of the University of British Columbia (UBC).
(§1) Initial screening for feeding deterrent effects was conducted at 50 μg/cm^2 in feeding deterrent bioassays.
Larvae were given the choice of feeding on two leaf disks, one treated with 10 μL of a solution of the test substance painted on each side and the other treated with a carrier solvent alone. The number of larvae was 25 per treatment.
Feeding deterrence data (percent) for initial screening concentration were analyzed by analysis of variance (ANOVA) after arcsin transformation using statistics software (Statistix 7. Analytical Software, Statistix 7 for Windows 95, 98, NT, 2000. Analytical Software, Tallahassee).

[2] = tested on: third instar T. ni larvae; assay: whole plant or invertebrate; conditions: for mortality at 0.25 %: Trichoplusia, topical, 24 h
Procedure: as §1
Mortality was determined 24 h after spraying larvae directly with test solutions. Third instar T. ni larvae were sprayed in 90 mm×15 mm Petri dishes (Falcon) lined with Fisher Scientific filter paper (90 mm diameter). Small plastic hand spraying bottles (50 mL capacity) were used. Larvae were then transferred to Petri dishes (90 mm×15 mm) with a small piece of artificial diet. Each Petri dish contained 10 larvae. Three replicates, each consisting of 10 larvae, were used per treatment.

T. ni moths [3] = assay: Oviposition choice (deterrence) bioassay on cabbage leaves; format: in vivo, Trichoplusia ni; conditions: Trichoplusia, 48 h, Table 5; oviposition deterrence at 0.25%, 48 h; read-out: OD (%), mean ± SE (n = 25-33)
Procedure: as §1
T. ni larvae were reared on normal diet from neonates (<24 h old) until pupation. Pupae were sexed and put in separate plastic containers until emergence. After eclosion, pairs of moths (one male and one female) were introduced into each cage with a control and a treated cabbage leaf. Pairs of moths (n=25) were used per treatment. Each leaf (approximately 100-110 cm^2) was sprayed with 0.5 mL of MeOH or a methanolic solution of the test chemical on each side. Eggs were counted on each cabbage leaf after 48 h.

T. ni moths [4] = assay: as above; format: in vivo, Trichoplusia ni; conditions: Trichoplusia, 48 h, Table 8; at 0.25%; read-out: OD (%) Mean ± SE N = 35-40
[5] = Trichoplusia, foliar, Table 5, 1,2-dialkoxybenzenes, feeding deterrence at 50 μg/cm^2, read-out: FD (%), mean ± SE (n = 25)
[6] = Trichoplusia, foliar, Table 4, 1,3-dialkoxybenzenes, feeding deterrence at 50 μg/cm^2, read-out: FD (%), mean (SE (n = 25))
[7] = Table 3, 1,4-dialkoxybenzenes, feeding deterrence at 50 μg/cm^2
[8] = Trichoplusia, foliar, Table 3, 1,4-dialkoxybenzenes, feeding deterrence at 50 μg/cm^2, read-out: FD (%), mean ± SE (n = 25)
[9] = read-out: mortality (%) (n = 3 × 10), Table 5

COc1ccccc1O [1-hydroxy-2-methoxybenzene]
pest or weed control at 50 µg/cm2, 50 µg/cm2 [1, 5]: -7.5%

CCOc1ccccc1O [2a{2}, 2-Ethoxy phenol]
pest or weed control at 50 µg/cm2, 50 µg/cm2 [1, 5]: -5.3%

CCCOc1ccccc1O [2a{3}, 2-Propoxy phenol]
pest or weed control at 50 µg/cm2, 50 µg/cm2 [1, 5]: -12 ± 20%

CCCCOc1ccccc1O [2a{4}, 2-Butoxy phenol]
pest or weed control at 50 µg/cm2, 50 µg/cm2 [1, 5]: 12 ± 20.3%

C=CCOc1ccccc1O [2a{6}, 2-Allyloxy phenol]
pest or weed control at 50 µg/cm2, 50 µg/cm2 [1, 5]: 31.1 ± 15.5%

COc1cccc(O)c1 [2b{1}, 3-Methoxy phenol]
pest or weed control at 50 µg/cm2, 50 µg/cm2 [1, 6]: 44.7 ± 17.5%

CCOc1cccc(O)c1 [2b{2}, 3-Ethoxy phenol]
pest or weed control at 50 µg/cm2, 50 µg/cm2 [1, 6]: -18.7 ± 17.8%

CCCOc1cccc(O)c1 [2b{3}, 3-Propoxy phenol]
pest or weed control at 50 µg/cm2, 50 µg/cm2 [1, 6]: 4 ± 20.4%

CC(C)CCOc1cccc(O)c1 [2b{4}, 3-(3-Methyl-butyloxy)phenol]
pest or weed control at 50 µg/cm2, 50 µg/cm2 [1, 6]: -5.8 ± 18.7%

COc1ccc(O)cc1 [2c{1}, 4-Methoxy phenol]
FD (%), mean ± SE (n = 25) [1, 7]: feeding stimulants | pest or weed control at 50 µg/cm2, 50 µg/cm2 [1, 8]: -26.5 ± 18.6%

CCOc1ccc(O)cc1 [2c{2}, 4-Ethoxy phenol]
FD (%), mean ± SE (n = 25) [1, 7]: weak feeding deterrent | pest or weed control at 50 µg/cm2, 50 µg/cm2 [1, 8]: 29.8 ± 18.2%

CCCOc1ccc(O)cc1 [2c{3}, 4-Propoxy phenol]
FD (%), mean ± SE (n = 25) [1, 7]: feeding stimulants | pest or weed control at 50 µg/cm2, 50 µg/cm2 [1, 8]: -28 ± 18.4%

CC(C)CCOc1ccc(O)cc1 [2c{5}, 4-(3-Methyl-butyloxy)phenol]
pest or weed control at 50 µg/cm2, 50 µg/cm2 [1, 8]: 29.5 ± 16.6%

COc1ccccc1OC [3a{1,1}, 1,2-Dimethoxy benzene]
pest or weed control at 50 µg/cm2, 50 µg/cm2 ([1]; Trichoplusia, foliar, read-out: FD (%), mean ± SE (n = 25)): 26 ± 17.6%

CCOc1ccccc1OCC [3a{2,2}, 1,2-Diethoxy benzene]
pest or weed control at 50 µg/cm2, 50 µg/cm2 [1, 5]: -2.1%

CCCOc1ccccc1OCCC [3a{3,3}, 1,2-Dipropoxy benzene]
pest or weed control at 50 µg/cm2, 50 µg/cm2 [1, 5]: 26.2 ± 17.6%

C=CCOc1ccccc1OCCC [3a{3, 6}, 1-allyloxy-2-propoxybenzene]
mortality at 0.25 % ([2]; read-out: Mortality (%) N = 3 × 10, Table 8): 17% | % mortality ([2]; contact toxicity to larvae, negative or zero values replaced by 0.1 for the index (footnote b)): 10-17 ^a % | pest or weed control at 50 µg/cm2, 50 µg/cm2 ([1]; Trichoplusia, foliar, Table 8, 50 μg/cm^2, read-out: F.D (%) Mean ± SE N = 25): 96 ± 3% | pest or weed control at 50 µg/cm2 ([1]; Trichoplusia, foliar, feeding deterrence (FD), Table 12, non-toxic feeding deterrents, read-out: % deterrence): 96% | DC50 ([1]; feeding deterrence DC50, unit not given in Table 12): 12-16 ^a μg/cm^2

CCCCOc1ccccc1OCCCC [3a{4,4}, 1,2-Dibutoxy benzene]
mortality at 0.25 % [2, 9]: 10% | pest or weed control at 50 µg/cm2, 50 µg/cm2 [1, 5]: 56.4 ± 13.8% | pest or weed control at 0.25 % (T. ni moths [3]): 19.6%

CC(C)CCOc1ccccc1OCCC(C)C [3a{5,5}, 1,2-Di-(3-methyl-butyloxy)benzene]
mortality at 0.25 % [2, 9]: 40% | pest or weed control at 50 µg/cm2, 50 µg/cm2 [1, 5]: 69.9 ± 11.5% | pest or weed control at 0.25 % (T. ni moths [3]): 11.5%

C=CCOc1ccccc1OCCC(C)C [3a{5, 6}, 1-allyloxy-2-isopentoxybenzene]
pest or weed control at 0.25 % (T. ni moths [4]): 26 ± 13.5%
